Results from patent US8952024B2, “Herbicidal pyrimidone derivatives” (E I du Pont de Nemours and Company, priority 2009, dated 2015).

Assays:
Assay in all cases: Test B pre-/postemergence plant response
Type in all cases: in vivo
[1] = test system: bermudagrass (Cynodon dactylon)
Outline: (§1)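 Seeds were sown in loam soil/sand blend and treated preemergence with compound in non-phytotoxic solvent mixture containing surfactant; postemergence sprays, same formulation, went onto plants 2 to 18 cm (1- to 4-leaf stage) in peat-based planting medium. Greenhouse 13 to 15 days, then visual rating versus untreated controls, 0 (no effect) to 100 (complete control).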

corn (Zea mays) = test system: corn (Zea mays)
Outline: as §1

[2] = test system: giant foxtail (Setaria faberii)
Outline: as §1

[3] = test system: johnsongrass (Sorghum halepense)
Outline: as §1

[4] = test system: ragweed (common ragweed, Ambrosia elatior)
Outline: as §1

[5] = test system: green foxtail (Setaria viridis)
Outline: as §1

[6] = test system: goosegrass (Eleusine indica)
Outline: as §1

[7] = test system: downy bromegrass (Bromus tectorum)
Outline: as §1

[8] = test system: Italian ryegrass (Lolium multiflorum)
Outline: as §1

[9] = test system: yellow nutsedge (Cyperus esculentus)
Outline: as §1

[10] = test system: large crabgrass (Digitaria sanguinalis)
Outline: as §1

[11] = test system: morningglory (Ipomoea coccinea)
Outline: as §1

[12] = test system: woolly cupgrass (Eriochloa villosa)
Outline: as §1

[13] = Postemergence, 31 g ai/ha, 0 to 100 scale (0 no effect, 100 complete control)
[14] = Postemergence, 62 g ai/ha, scale 0 to 100 (0 no effect, 100 complete control)
[15] = Postemergence, 125 g ai/ha, scale 0 to 100 (0 no effect, 100 complete control)
[16] = Postemergence, 250 g ai/ha, scale 0 to 100 (0 no effect, 100 complete control), 13 to 15 days
[17] = Preemergence, 31 g ai/ha, scale 0 to 100 (0 no effect, 100 complete control)
[18] = Preemergence, 62 g ai/ha, scale 0 to 100 (0 no effect, 100 complete control)
[19] = Preemergence, 125 g ai/ha, scale 0 to 100, 0 no effect, 100 complete control
[20] = Preemergence, 250 g ai/ha, 0 to 100 scale
[21] = 250 g ai/ha, Preemergence, 0 to 100 scale
[22] = Postemergence, 31 g ai/ha, scale 0 to 100 (0 no effect, 100 complete control)
[23] = Postemergence, 62 g ai/ha, scale 0 (no effect) to 100 (complete control), 13 to 15 days
[24] = Postemergence, 125 g ai/ha, visual rating after 13 to 15 days, scale 0 (no effect) to 100 (complete control)
[25] = Postemergence, 250 g ai/ha, scale 0 to 100
[26] = Preemergence, 125 g ai/ha, 0 to 100 scale

Structure (SMILES): COc1ccc(-n2c(-c3ccccc3)ncc(C(=O)C3=C(O)CCCC3=O)c2=O)cc1OC [Compound 218]
- Plant response rating, Bermudagrass [1, 13]: 70
- Plant response rating, Bermudagrass [1, 14]: 80
- Plant response rating, Bermudagrass [1, 15]: 95
- Plant response rating, Bermudagrass [1, 16]: 100
- Plant response rating, Bermudagrass [1, 17]: 98
- Plant response rating, Bermudagrass [1, 18]: 100
- Plant response rating, Bermudagrass [1, 19]: 100
- Bermudagrass plant response rating ([1]; Preemergence, 250 g ai/ha, 0 to 100 scale, 0 no effect, 100 complete control): 100
- Plant response rating, Corn (corn (Zea mays); [13]): 0
- Plant response rating, Corn (corn (Zea mays); [14]): 10
- Plant response rating, Corn (corn (Zea mays); [15]): 75
- Plant response rating, Corn (corn (Zea mays); [16]): 80
- Plant response rating, Corn (corn (Zea mays); [17]): 0
- Plant response rating, Corn (corn (Zea mays); [18]): 0
- Plant response rating, Corn (corn (Zea mays); [19]): 0
- Corn plant response rating (corn (Zea mays); [20]): 0
- Plant response rating, Foxtail, Giant [2, 13]: 40
- Plant response rating, Foxtail, Giant [2, 14]: 55
- Plant response rating, Foxtail, Giant [2, 15]: 65
- Plant response rating, Foxtail, Giant [2, 16]: 85
- Plant response rating, Foxtail, Giant [2, 17]: 0
- Plant response rating, Foxtail, Giant [2, 18]: 0
- Plant response rating, Foxtail, Giant [2, 19]: 20
- Foxtail, Giant plant response rating [2, 20]: 85
- Plant response rating, Johnsongrass [3, 15]: 55
- Plant response rating, Johnsongrass [3, 16]: 80
- Plant response rating, Johnsongrass [3, 17]: 0
- Plant response rating, Johnsongrass [3, 18]: 0
- Plant response rating, Johnsongrass [3, 19]: 20
- Johnsongrass plant response rating [3, 20]: 45
- Plant response rating, Ragweed [4, 13]: 95
- Plant response rating, Ragweed [4, 14]: 95
- Plant response rating, Ragweed [4, 16]: 100
- Plant response rating, Ragweed [4, 17]: 85
- Plant response rating, Ragweed [4, 18]: 95
- Plant response rating, Ragweed [4, 19]: 98
- Ragweed plant response rating [4, 20]: 100
- Plant response rating, Foxtail, Green [5, 13]: 60
- Plant response rating, Foxtail, Green [5, 14]: 85
- Plant response rating, Foxtail, Green [5, 15]: 90
- Plant response rating, Foxtail, Green [5, 16]: 90
- Plant response rating, Foxtail, Green [5, 17]: 0
- Plant response rating, Foxtail, Green [5, 18]: 30
- Plant response rating, Foxtail, Green [5, 19]: 80
- Foxtail, Green plant response rating [5, 20]: 100
- Plant response rating, Goosegrass [6, 13]: 0
- Plant response rating, Goosegrass [6, 14]: 10
- Plant response rating, Goosegrass [6, 15]: 15
- Plant response rating, Goosegrass [6, 16]: 35
- Plant response rating, Goosegrass [6, 17]: 10
- Plant response rating, Goosegrass [6, 18]: 60
- Plant response rating, Goosegrass [6, 19]: 98
- Goosegrass plant response rating [6, 20]: 98
- Plant response rating, Bromegrass, Downy [7, 13]: 5
- Plant response rating, Bromegrass, Downy [7, 14]: 15
- Plant response rating, Bromegrass, Downy [7, 15]: 20
- Plant response rating, Bromegrass, Downy [7, 16]: 30
- Plant response rating, Bromegrass, Downy [7, 17]: 0
- Plant response rating, Bromegrass, Downy [7, 18]: 0
- Plant response rating, Bromegrass, Downy [7, 19]: 0
- Bromegrass, Downy plant response rating [7, 20]: 0
- Plant response rating, Ryegrass, Italian [8, 13]: 30
- Plant response rating, Ryegrass, Italian [8, 14]: 40
- Plant response rating, Ryegrass, Italian [8, 16]: 70
- Plant response rating, Ryegrass, Italian [8, 17]: 0
- Plant response rating, Ryegrass, Italian [8, 18]: 0
- Plant response rating, Ryegrass, Italian [8, 19]: 5
- Ryegrass, Italian plant response rating [8, 20]: 5
- Plant response rating, Nutsedge, Yellow [9, 13]: 10
- Plant response rating, Nutsedge, Yellow [9, 14]: 15
- Plant response rating, Nutsedge, Yellow [9, 15]: 15
- Plant response rating, Nutsedge, Yellow [9, 16]: 60
- Plant response rating, Nutsedge, Yellow [9, 17]: 45
- Plant response rating, Nutsedge, Yellow [9, 18]: 75
- Plant response rating, Nutsedge, Yellow [9, 19]: 90
- Nutsedge, Yellow plant response rating [9, 20]: 90
- Plant response rating, Crabgrass, Large [10, 13]: 40
- Plant response rating, Crabgrass, Large [10, 14]: 45
- Plant response rating, Crabgrass, Large [10, 15]: 70
- Plant response rating, Crabgrass, Large [10, 16]: 90
- Plant response rating, Crabgrass, Large [10, 17]: 0
- Plant response rating, Crabgrass, Large [10, 18]: 20
- Plant response rating, Crabgrass, Large [10, 19]: 65
- Crabgrass, Large plant response rating [10, 20]: 98
- Plant response rating, Morningglory [11, 13]: 70
- Plant response rating, Morningglory [11, 14]: 70
- Plant response rating, Morningglory [11, 15]: 80
- Plant response rating, Morningglory [11, 16]: 98
- Plant response rating, Morningglory [11, 17]: 0
- Plant response rating, Morningglory [11, 18]: 0
- Plant response rating, Morningglory [11, 19]: 15
- Morningglory plant response rating [11, 20]: 65
- Plant response rating, Cupgrass, Woolly [12, 13]: 40
- Plant response rating, Cupgrass, Woolly [12, 14]: 45
- Plant response rating, Cupgrass, Woolly [12, 15]: 60
- Plant response rating, Cupgrass, Woolly [12, 16]: 80
- Plant response rating, Cupgrass, Woolly [12, 17]: 0
- Plant response rating, Cupgrass, Woolly [12, 18]: 0
- Plant response rating, Cupgrass, Woolly [12, 19]: 65
- Cupgrass, Woolly plant response rating [12, 20]: 85

Structure (SMILES): Cc1ccccc1-n1c(-c2cccc(Cl)c2)ncc(C(=O)C2=C(O)CCCC2=O)c1=O [Compound 36]
- Plant response rating, Bermudagrass [1, 21]: 100
- Plant response rating, Bermudagrass [1, 22]: 90
- Plant response rating, Bermudagrass [1, 23]: 98
- Plant response rating, Bermudagrass [1, 24]: 100
- Bermudagrass plant response rating [1, 25]: 100
- Plant response rating, Bermudagrass [1, 17]: 95
- Plant response rating, Bermudagrass [1, 18]: 100
- Bermudagrass plant response rating [1, 26]: 100
- Plant response rating, Corn (corn (Zea mays); [21]): 0
- Plant response rating, Corn (corn (Zea mays); [22]): 50
- Plant response rating, Corn (corn (Zea mays); [23]): 55
- Plant response rating, Corn (corn (Zea mays); [24]): 65
- Corn plant response rating (corn (Zea mays); [25]): 85
- Plant response rating, Corn (corn (Zea mays); [17]): 0
- Plant response rating, Corn (corn (Zea mays); [18]): 0
- Corn plant response rating (corn (Zea mays); [26]): 0
- Plant response rating, Foxtail, Giant [2, 21]: 80
- Plant response rating, Foxtail, Giant [2, 22]: 95
- Plant response rating, Foxtail, Giant [2, 23]: 95
- Plant response rating, Foxtail, Giant [2, 24]: 98
- Foxtail, Giant plant response rating [2, 25]: 98
- Plant response rating, Foxtail, Giant [2, 17]: 10
- Plant response rating, Foxtail, Giant [2, 18]: 20
- Foxtail, Giant plant response rating [2, 26]: 65
- Plant response rating, Johnsongrass [3, 21]: 85
- Plant response rating, Johnsongrass [3, 23]: 75
- Plant response rating, Johnsongrass [3, 24]: 85
- Johnsongrass plant response rating [3, 25]: 100
- Plant response rating, Johnsongrass [3, 17]: 0
- Plant response rating, Johnsongrass [3, 18]: 65
- Johnsongrass plant response rating [3, 26]: 80
- Plant response rating, Ragweed [4, 21]: 90
- Plant response rating, Ragweed [4, 23]: 90
- Plant response rating, Ragweed [4, 24]: 95
- Plant response rating, Ragweed [4, 17]: 35
- Ragweed plant response rating [4, 26]: 85
- Plant response rating, Foxtail, Green [5, 21]: 85
- Plant response rating, Foxtail, Green [5, 22]: 85
- Plant response rating, Foxtail, Green [5, 23]: 90
- Plant response rating, Foxtail, Green [5, 24]: 90
- Foxtail, Green plant response rating [5, 25]: 90
- Plant response rating, Foxtail, Green [5, 17]: 35
- Plant response rating, Foxtail, Green [5, 18]: 80
- Foxtail, Green plant response rating [5, 26]: 85
- Plant response rating, Goosegrass [6, 21]: 100
- Plant response rating, Goosegrass [6, 23]: 85
- Plant response rating, Goosegrass [6, 24]: 90
- Goosegrass plant response rating [6, 25]: 95
- Plant response rating, Goosegrass [6, 17]: 0
- Goosegrass plant response rating [6, 26]: 95
- Plant response rating, Bromegrass, Downy [7, 21]: 10
- Plant response rating, Bromegrass, Downy [7, 22]: 30
- Plant response rating, Bromegrass, Downy [7, 23]: 30
- Plant response rating, Bromegrass, Downy [7, 24]: 45
- Bromegrass, Downy plant response rating [7, 25]: 65
- Plant response rating, Bromegrass, Downy [7, 17]: 0
- Plant response rating, Bromegrass, Downy [7, 18]: 0
- Bromegrass, Downy plant response rating [7, 26]: 0
- Plant response rating, Ryegrass, Italian [8, 21]: 0
- Plant response rating, Ryegrass, Italian [8, 23]: 5
- Plant response rating, Ryegrass, Italian [8, 24]: 10
- Plant response rating, Ryegrass, Italian [8, 17]: 0
- Ryegrass, Italian plant response rating [8, 26]: 0
- Plant response rating, Nutsedge, Yellow [9, 21]: 75
- Plant response rating, Nutsedge, Yellow [9, 23]: 20
- Plant response rating, Nutsedge, Yellow [9, 24]: 25
- Plant response rating, Nutsedge, Yellow [9, 17]: 0
- Nutsedge, Yellow plant response rating [9, 26]: 40
- Plant response rating, Crabgrass, Large [10, 21]: 100
- Plant response rating, Crabgrass, Large [10, 22]: 90
- Plant response rating, Crabgrass, Large [10, 23]: 95
- Plant response rating, Crabgrass, Large [10, 24]: 95
- Crabgrass, Large plant response rating [10, 25]: 98
- Plant response rating, Crabgrass, Large [10, 17]: 20
- Plant response rating, Crabgrass, Large [10, 18]: 90
- Crabgrass, Large plant response rating [10, 26]: 100
- Plant response rating, Morningglory [11, 21]: 20
- Plant response rating, Morningglory [11, 23]: 70
- Plant response rating, Morningglory [11, 24]: 75
- Plant response rating, Morningglory [11, 17]: 0
- Plant response rating, Morningglory [11, 18]: 0
- Morningglory plant response rating [11, 26]: 0
- Plant response rating, Cupgrass, Woolly [12, 21]: 65
- Plant response rating, Cupgrass, Woolly [12, 22]: 85
- Plant response rating, Cupgrass, Woolly [12, 23]: 90
- Plant response rating, Cupgrass, Woolly [12, 24]: 95
- Cupgrass, Woolly plant response rating [12, 25]: 98
- Plant response rating, Cupgrass, Woolly [12, 17]: 0
- Plant response rating, Cupgrass, Woolly [12, 18]: 0
- Cupgrass, Woolly plant response rating [12, 26]: 10
